In patent US7078395B1, “Methods for treating or preventing cancer by preventing, inhibiting or arresting cell cycling” (priority 1999, dated 2006):
Where “and” joins values, the source holds several entries; their conditions need not be identical. Equal entries are not always repeated.

How the values were obtained:
[1] = tested on: MCF-7 breast cancer cells; experiment: Irreversible inhibition of cell growth, Stage 1 and Stage 2 (Coulter cell counter); assay type: cell-based; conditions: for cell numbers, % of the control cell number, Stage 1: 6 days
Protocol: MCF-7 breast cancer cells were seeded into multi-well culture plates at a density of 10^5 cells/well. Cells were allowed to attach and grown until about 30% confluent when they were treated as follows:
Cells were grown for 6 days in growth medium containing the above drugs with changes of medium/drug every 3 days. At the end of this period cell numbers were counted using a Coulter cell counter.
After treatment of cells for a 6-day period with the above drugs cells were re-seeded at a density of 10^4 Cells/well. No further treatments were added. Cells were allowed to continue to grow for a further 6 days in the presence of growth medium. At the end of this period cell numbers were again counted.
Stages 1 and 2 described above were repeated using Control—no treatment, EMATE 20 μM and EMATE 5 μM.
MCF-7 breast cancer cells were seeded into multi-well culture plates at a density of 10^5 cells/well. Cells were allowed to attach and grown until about 30% confluent when they were treated as follows: • Control—no treatment • Compound of Interest (COI) 20 μM
Cells were grown for 6 days in growth medium containing the COI with changes of medium/COI every 3 days. At the end of this period cell numbers were counted using a Coulter cell counter.
After treatment of cells for a 6-day period with the COI cells were re-seeded at a density of 10^4 cells/well. No further treatments were added. Cells were allowed to continue to grow for a further 6 days in the presence of growth medium. At the end of this period cell numbers were again counted.

[2] = tested on: nitrosomethylurea-induced mammary tumours; experiment: Growth of NMU-induced mammary tumours in intact rats; assay type: in vivo, rat
Protocol: The effect of 2-MeOEMATE on mammary tumour growth was examined in a preliminary study using Ludwig rats (Harlan Olac, Bicester, UK) in which tumours were induced by inoculation of NMU. Tumour development was monitored regularly and when 0.5-1.0 cm^3 in volume, animals received vehicle (propylene glycol, 200 μl/day, p.o.), 2-MeOEMATE (20 mg/kg/day, p.o.) or 2-MeOE1 (20 mg/kg/day, p.o.) daily for an 11 day period. Tumour length and width was measured with callipers and tumour volumes calculated as described (21).

SMILES: COc1cc2c(cc1OS(N)(=O)=O)CCC1C2CC[C@]2(C)C(=O)CCC12 (some centres unmarked) [2-MeOEMATE, 2-methoxyoestrone-3-O-sulphamate]
- cell numbers, % of the control cell number, Stage 1 ([1]; 1 m (so in the source)): 52%
- cell numbers, % of the control cell number, Stage 1 ([1]; 5 μm): 43%
- effect on cell numbers, Stage 2 (irreversible growth inhibition) ([1]; re-seeded after 6-day treatment, further 6 days without drug): severely growth restricted
- reduction in tumour volume ([2]; 20 mg/kg/day, p.o., 11 days, individual animals): almost complete regression of ⅔ tumours and 8% and tumours regressed rapidly and were barely palpable and regressed almost completely
- regrowth of regressed tumours ([2]; monitored for a further 33 days after 11-day dosing): no regrowth of tumours was detected
